The values that follow come from patent US9757385B2, “Method of treating leukemia using pharmaceutical formulation containing thienotriazolodiazepine compounds” (ONCOETHIX GmbH, priority 2013, dated 2017).

Structures can show the parent of a compound that is named as a salt.

Data set [1] relates to Akt phosphorylation on T308. The conditions noted are these: cited from earlier work.
Data set [2] concerns Akt phosphorylation on S473. Particulars: cited from earlier work.
For the next data set, the system named is PI3K/mTOR. Particulars: dual PI3K/mTOR inhibitor; cited from earlier work.
The next data set relates to HDAC. The conditions noted are these: cited from earlier work.
Another data set concerns the target FKBP12 (Homo sapiens, UniProt P62942). Particulars: mTOR inhibitor of FKBP12; cited from earlier work.
For a further data set, the system named is MOLT-4 cells. Particulars: in MOLT-4 cells; cited from earlier work.
Another data set concerns Reh cells. The conditions noted are these: in Reh cells; cited from earlier work.
For a further data set, the system named is HL60. The experiment in a line: MTT assay, anti-proliferative effect. Type of data set: cell-based. The conditions noted are these: Homo sapiens, HL-60; HL60, 72-h exposure; range given for HL60, U937 and Jurkat together. On the procedure:
(§1) MTT assays were performed after 72 hours exposure. Protein levels were analyzed by Western Blot using commercial antibodies. RNA was extracted using the Qiagen RNAEasy and RT-PCR was performed using Fast SYBR Green on a StepOnePlus Real-Time PCR System. Combination effects were evaluated in four cell lines (HL60, U937, Jurkat and K562); compound (1-1) was administered with daunorubicin, azacytidine, dexamethasone, cytarabine or methotrexate. The 48 h Combination Index (CI) was determined by median effect plot analysis using CalcuSyn software expressed as the median and range of CI values among cell lines (Chou & Talalay analysis). CI<1 reflects synergy effects, CI=1 reflects additivity and CI>1 reflects antagonist effects.
(§2) Four established human cell lines derived from acute (HL60, U937), chronic (K562) myeloid leukemia, and acute lymphoblastic leukemia (Jurkat) were treated with increasing compound (1-1) doses. MTT assays were performed after 72 h exposure. GI50 and Emax values were calculated with the equation for sigmoidal dose response using Prism 5.00. Results are the mean±95% CI of at least 3 independent experiments performed in triplicate. […] Protein levels were analyzed by Western Blot using commercial antibodies. For cell cycle analysis and apoptosis induction, cells were stained with PI or Annexin V respectively, and analyzed using a FACScan flow cytometer. RT-PCR was performed using Fast SYBR Green Master Mix on a StepOnePlus Real-Time PCR System. […] Compound (1-1) combination studies were performed in cell lines exposed for 48 h to increasing doses of compound (1-1) alone or in combination several conventional anti-leukemic drugs, such as epigenetic modulators, steroids, m-TOR inhibitors and classical cytotoxic agents, and assessed using the Chou & Talalay method. […] The Combination Index (CI) was determined by median effect plot analysis using CalcuSyn software. […]
(In general: Tetrazolium dyes change colour on reduction, which living cells bring about.)

The subject of a further data set is Jurkat. Briefly: MTT assay, anti-proliferative effect. The conditions noted are these: Homo sapiens, 72-h exposure, range given for HL60, U937 and Jurkat together. The format is cell-based. On the procedure:
as §1, §2

A further data set deals with U937. The experiment in a line: MTT assay, anti-proliferative effect. The format is cell-based. Particulars: Homo sapiens, U-937; U937, 72-h exposure; range given for HL60, U937 and Jurkat together. On the procedure: as §1, §2
Data set [3] relates to K-562, NALM-1, CCRF-CEM, MOLT-3 and -4. The experiment in a line: MTT assay, anti-proliferative effect, rest of the panel. The format is cell-based. Particulars: Homo sapiens; the rest of the eight cell lines, 72-h exposure. As for the experimental part: as §1
In data set [4] the test system is compound (1-1) sensitive cell lines (HL60, U937 and Jurkat). Briefly: Cell cycle analysis and apoptosis induction. The format is cell-based, human. As for the experimental part:
Four established human cell lines derived from acute (HL60, U937), chronic (K562) myeloid leukemia, and acute lymphoblastic leukemia (Jurkat) were treated with increasing compound (1-1) doses. MTT assays were performed after 72 h exposure. GI50 and Emax values were calculated with the equation for sigmoidal dose response using Prism 5.00. Results are the mean±95% CI of at least 3 independent experiments performed in triplicate. […] Protein levels were analyzed by Western Blot using commercial antibodies. For cell cycle analysis and apoptosis induction, cells were stained with PI or Annexin V respectively, and analyzed using a FACScan flow cytometer. RT-PCR was performed using Fast SYBR Green Master Mix on a StepOnePlus Real-Time PCR System. Cell cycle, apoptosis induction and qRT-PCR results are the mean±SD of at least 3 independent experiments, where *p<0.05, **p<0.001 and ***p<0.0001 versus control cells (0.1% DMSO), employing Anova then Dunnett's Multiple Comparison Test. Compound (1-1) combination studies were performed in cell lines exposed for 48 h to increasing doses of compound (1-1) alone or in combination several conventional anti-leukemic drugs, such as epigenetic modulators, steroids, m-TOR inhibitors and classical cytotoxic agents, and assessed using the Chou & Talalay method. For the sequential combination schemes, cell lines were exposed to azacytidine or panobinostat for 48 or 72 h, washed with drug-free medium and then treated with compound (1-1) for 24 or 48 h. The Combination Index (CI) was determined by median effect plot analysis using CalcuSyn software. CI<1 reflects synergy, CI=1 additivity and CI>1 antagonist effects. Results represent the median and range of 4 independent experiments performed in triplicate.

The subject of data set [5] is c-MYC. Briefly: c-MYC mRNA (RT-PCR) and protein (Western Blot) in sensitive cell lines. Type of data set: cell-based, human. As for the experimental part: as §1
(§3) Four established human cell lines derived from acute (HL60, U937), chronic (K562) myeloid leukemia, and acute lymphoblastic leukemia (Jurkat) were treated with increasing compound (1-1) doses. MTT assays were performed after 72 h exposure. GI50 and Emax values were calculated with the equation for sigmoidal dose response using Prism 5.00. […] Protein levels were analyzed by Western Blot using commercial antibodies. For cell cycle analysis and apoptosis induction, cells were stained with PI or Annexin V respectively, and analyzed using a FACScan flow cytometer. […] The Combination Index (CI) was determined by median effect plot analysis using CalcuSyn software. […]
(Immunoblotting shows a protein as a band on a membrane.)

The test system of data set [6] is c-MYC. The experiment in a line: c-MYC RNA and protein in resistant cell line K562. The format is cell-based, human. On the procedure:
as §1, §3

For another data set, the system named is BRD2 and BRD4. The experiment in a line: BRD2 and BRD4 mRNA and protein in Jurkat cells. Type of data set: cell-based, human.
The test system of data set [7] is HL60, U937, Jurkat and K562. The experiment in a line: Combination Index, Chou & Talalay median effect analysis. Type of data set: cell-based, human. The conditions noted are these: OTX015-sensitive and resistant leukemic cells lines.
The target in another data set is HDAC3 (Homo sapiens, UniProt O15379). Particulars: cited from earlier work.
Chain of HDAC3 (O15379 whole entry, species assumed): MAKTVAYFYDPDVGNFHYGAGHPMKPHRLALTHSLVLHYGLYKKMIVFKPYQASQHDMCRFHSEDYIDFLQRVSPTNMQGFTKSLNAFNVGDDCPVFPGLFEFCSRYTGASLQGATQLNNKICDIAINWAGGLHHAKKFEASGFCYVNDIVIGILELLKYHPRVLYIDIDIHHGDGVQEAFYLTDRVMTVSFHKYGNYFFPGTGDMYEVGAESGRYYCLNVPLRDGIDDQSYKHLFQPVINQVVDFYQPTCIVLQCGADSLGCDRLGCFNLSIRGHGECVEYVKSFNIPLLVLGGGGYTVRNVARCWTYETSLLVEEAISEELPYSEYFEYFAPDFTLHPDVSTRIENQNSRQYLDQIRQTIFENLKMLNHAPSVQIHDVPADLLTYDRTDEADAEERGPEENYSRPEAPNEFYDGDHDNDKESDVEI
Chain of HDAC3 (Q9Y618 395-489 partner limits assumed, species assumed): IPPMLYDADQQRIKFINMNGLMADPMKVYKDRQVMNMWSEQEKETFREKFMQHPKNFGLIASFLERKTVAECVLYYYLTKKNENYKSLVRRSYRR
The next data set deals with PI3Kβ (p110β) (Homo sapiens, UniProt P42338). The conditions noted are these: cited from earlier work.
Chain of PI3Kβ (p110β) (P42338 whole entry, species assumed): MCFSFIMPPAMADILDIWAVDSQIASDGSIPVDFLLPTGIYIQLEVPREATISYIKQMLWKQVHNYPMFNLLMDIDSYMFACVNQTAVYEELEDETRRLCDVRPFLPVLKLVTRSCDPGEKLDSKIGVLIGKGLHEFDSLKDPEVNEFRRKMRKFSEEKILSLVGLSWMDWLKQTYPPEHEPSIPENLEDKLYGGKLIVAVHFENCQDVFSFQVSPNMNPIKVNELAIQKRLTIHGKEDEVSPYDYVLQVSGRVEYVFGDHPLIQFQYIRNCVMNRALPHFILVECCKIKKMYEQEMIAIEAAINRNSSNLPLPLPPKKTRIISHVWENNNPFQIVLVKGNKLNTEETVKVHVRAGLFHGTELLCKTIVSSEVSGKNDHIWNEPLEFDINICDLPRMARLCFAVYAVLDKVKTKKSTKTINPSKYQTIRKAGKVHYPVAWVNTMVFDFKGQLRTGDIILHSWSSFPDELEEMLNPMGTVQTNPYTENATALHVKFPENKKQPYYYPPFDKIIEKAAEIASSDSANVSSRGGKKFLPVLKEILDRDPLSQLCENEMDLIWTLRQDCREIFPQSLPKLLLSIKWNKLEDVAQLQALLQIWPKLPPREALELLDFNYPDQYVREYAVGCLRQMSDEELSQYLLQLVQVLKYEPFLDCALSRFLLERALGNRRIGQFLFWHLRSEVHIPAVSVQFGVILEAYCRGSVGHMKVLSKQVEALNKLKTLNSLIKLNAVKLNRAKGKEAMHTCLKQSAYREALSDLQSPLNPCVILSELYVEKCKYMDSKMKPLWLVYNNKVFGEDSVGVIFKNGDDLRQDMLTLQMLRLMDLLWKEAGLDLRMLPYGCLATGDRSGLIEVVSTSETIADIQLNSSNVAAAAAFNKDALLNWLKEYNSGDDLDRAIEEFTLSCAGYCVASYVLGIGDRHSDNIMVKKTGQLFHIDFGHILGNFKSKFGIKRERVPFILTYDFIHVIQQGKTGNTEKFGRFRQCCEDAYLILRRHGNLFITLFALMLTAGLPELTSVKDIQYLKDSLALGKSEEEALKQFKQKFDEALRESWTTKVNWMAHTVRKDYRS
Chain of PI3Kβ (p110β) (P27986 whole entry partner, species assumed): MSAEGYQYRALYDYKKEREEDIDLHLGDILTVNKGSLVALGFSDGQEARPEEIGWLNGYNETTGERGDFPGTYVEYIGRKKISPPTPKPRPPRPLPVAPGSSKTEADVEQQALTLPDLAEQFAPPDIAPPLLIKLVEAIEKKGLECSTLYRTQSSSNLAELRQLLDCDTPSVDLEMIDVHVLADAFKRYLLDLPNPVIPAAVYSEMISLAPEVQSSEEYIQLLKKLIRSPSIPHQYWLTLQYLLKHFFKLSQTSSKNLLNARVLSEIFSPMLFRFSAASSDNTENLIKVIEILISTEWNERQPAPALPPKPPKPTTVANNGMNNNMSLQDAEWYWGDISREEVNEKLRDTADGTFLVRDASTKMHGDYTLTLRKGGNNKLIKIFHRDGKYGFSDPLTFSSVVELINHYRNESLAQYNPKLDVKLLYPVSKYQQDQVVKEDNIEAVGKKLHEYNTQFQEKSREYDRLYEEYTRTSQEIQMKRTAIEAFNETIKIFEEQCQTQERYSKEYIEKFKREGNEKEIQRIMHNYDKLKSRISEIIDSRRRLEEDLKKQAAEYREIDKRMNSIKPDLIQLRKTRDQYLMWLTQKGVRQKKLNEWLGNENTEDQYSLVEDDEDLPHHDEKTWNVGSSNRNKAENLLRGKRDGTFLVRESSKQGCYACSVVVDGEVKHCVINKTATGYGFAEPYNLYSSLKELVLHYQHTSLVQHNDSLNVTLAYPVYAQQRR
The target in another data set is PI3Kγ (p110γ) (Homo sapiens, UniProt P48736). Particulars: cited from earlier work.
Chain of PI3Kγ (p110γ) (P48736 whole entry, species assumed): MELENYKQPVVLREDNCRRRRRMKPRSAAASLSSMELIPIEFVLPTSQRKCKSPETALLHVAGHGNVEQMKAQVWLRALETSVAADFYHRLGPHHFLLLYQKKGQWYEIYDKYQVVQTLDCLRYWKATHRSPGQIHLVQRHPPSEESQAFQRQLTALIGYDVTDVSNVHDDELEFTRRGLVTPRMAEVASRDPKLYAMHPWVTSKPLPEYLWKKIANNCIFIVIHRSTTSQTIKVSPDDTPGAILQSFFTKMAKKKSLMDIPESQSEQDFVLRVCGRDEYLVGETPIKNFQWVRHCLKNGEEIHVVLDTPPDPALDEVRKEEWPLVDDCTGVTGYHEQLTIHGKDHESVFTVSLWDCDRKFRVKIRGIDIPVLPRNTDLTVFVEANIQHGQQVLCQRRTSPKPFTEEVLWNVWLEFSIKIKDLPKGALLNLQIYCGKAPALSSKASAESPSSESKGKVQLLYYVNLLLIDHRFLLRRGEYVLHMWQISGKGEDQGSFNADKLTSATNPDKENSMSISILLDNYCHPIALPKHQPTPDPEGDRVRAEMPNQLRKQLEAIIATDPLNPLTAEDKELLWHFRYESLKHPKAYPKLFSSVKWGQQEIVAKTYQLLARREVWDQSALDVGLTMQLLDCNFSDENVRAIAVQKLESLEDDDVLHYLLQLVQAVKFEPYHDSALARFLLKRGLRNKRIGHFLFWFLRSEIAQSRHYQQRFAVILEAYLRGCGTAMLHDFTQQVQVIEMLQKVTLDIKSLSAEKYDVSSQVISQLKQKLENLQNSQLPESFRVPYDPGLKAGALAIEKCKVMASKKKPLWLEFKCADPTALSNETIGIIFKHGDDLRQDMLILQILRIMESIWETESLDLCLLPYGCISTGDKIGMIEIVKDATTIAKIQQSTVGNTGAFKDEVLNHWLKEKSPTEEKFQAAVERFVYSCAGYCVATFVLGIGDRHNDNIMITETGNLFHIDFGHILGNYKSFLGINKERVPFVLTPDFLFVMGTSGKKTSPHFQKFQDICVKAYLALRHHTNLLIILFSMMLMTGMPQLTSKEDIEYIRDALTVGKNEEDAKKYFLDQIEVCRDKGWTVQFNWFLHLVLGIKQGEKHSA
The target of another data set is mTOR (Homo sapiens, UniProt P42345). Particulars: cited from earlier work.
Where [8] appears, read: sensitive leukemic cells, 48 h exposure to 500 nM (Example 8).

Chain of FKBP12 (P62942 whole entry, species assumed): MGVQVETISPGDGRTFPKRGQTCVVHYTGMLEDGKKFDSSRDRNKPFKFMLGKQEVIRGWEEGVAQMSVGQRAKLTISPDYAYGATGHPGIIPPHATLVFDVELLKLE

Turning to `COc1ccc(-c2cc3c(C)nc(N)nc3n([C@H]3CC[C@H](OCCO)CC3)c2=O)cn1` [PF-04691502], the IC50 (commonly the midpoint of a concentration-inhibition curve) is 7.5 nM in [1] and 3.8 nM in [2].

Regarding `COc1ccc(-c2ccc3ncc4c(c3c2)n(-c2ccc(N3CCNCC3)c(C(F)(F)F)c2)c(=O)n4C)cn1` [NVP-BGT226], in the data set with PI3K/mTOR, the IC50 was 1 nM.

With `CC(C)[C@H](C(=O)Nc1ccc(C(=O)NO)cc1)c1ccccc1` [AR-42, (S)-N-hydroxy-4-(3-methyl-2-phenylbutanamido)benzamide], in the data set on HDAC, the IC50 was 30 nM.

In the case of `CO[C@H]1C[C@@H]2CC[C@@H](C)[C@@](O)(O2)C(=O)C(=O)N2CCCC[C@H]2C(=O)O[C@H]([C@H](C)C[C@@H]2CC[C@@H](OCCO)[C@H](OC)C2)CC(=O)[C@H](C)/C=C(\C)[C@@H](O)[C@@H](OC)C(=O)[C@H](C)C[C@H](C)/C=C/C=C/C=C/1C` [Everolimus], at FKBP12, the IC50 is 1.6 to 2.4 nM.

As to `CN(C)c1ccc(C(=O)NCCCCCCC(=O)NO)cc1` [M344], the IC50 with HDAC was 100 nM.

Regarding `CCN(CC)Cc1ccc2cc(COC(=O)Nc3ccc(C(=O)NO)cc3)ccc2c1` [ITF2357], in the data set with HDAC, the IC50 is 7.5 to 16 nM.

`Cc1[nH]c2ccccc2c1CCNCc1ccc(/C=C/C(=O)NO)cc1` [Panobinostat]: the values for the concentration for half-maximal inhibition (IC50) with MOLT-4 cells and in the data set on Reh cells were 5 nM and 20 nM, respectively.

For the molecule `Cc1sc2c(c1C)C(c1ccc(Cl)cc1)=N[C@@H](CC(=O)Nc1ccc(O)cc1)c1nnc(C)n1-2` [compound (1-1), 2-[(6S)-4-(4-chlorophenyl)-2,3,9-trimethyl-6H-thienol[3,2-f]-[1,2,4]triazolo[4,3-a][1,4]diazepin-6-yl]-N-(4-hydroxyphenyl)acetamide dihydrate], the GI50 (in general, the concentration giving 50% growth inhibition) in the data set on HL60 was 230 to 384 nM; in the data set on Jurkat it was 230 to 384 nM; in the data set on U937, 230 to 384 nM; in [3], at least 1000 nM. In addition, the induction of apoptosis result in [4] (sensitive cell lines (Example 7)) is reported as “without induction of apoptosis”; in data set [4] (setting [8]), “slight induction of apoptosis”. Also, the cell cycle effect result in [4] (sensitive cell lines, time-dependent (Example 7)) is listed as “cell cycle arrest in G1”; in data set [4] (setting [8]), “increased proportion of cells in cell cycle phase G0/G1”. Moreover, the “c-MYC mRNA and protein levels” value with c-MYC [5] (sensitive cell lines (Example 8)) was “rapid and sustained downregulation”. Moreover, the “cMYC mRNA and protein levels” value in the data set with c-MYC [5] (sensitive cell lines, 500 nM, after 6-h and up to 72-h treatment) is recorded as “down-regulated”. The “levels of c-MYC RNA” value with c-MYC [6] (K562, after 4-h and 24-h exposure) was “decreased levels”. In addition, the cMYC protein levels entry with c-MYC [6] (K562, even after 72 h of treatment) is recorded as “constant”. In the data set on BRD2 and BRD4, the “BRD2 and BRD4 protein levels” value is recorded as “without modifying protein levels”. Also, the “mRNA levels of BRD2 and BRD4” value in the data set with BRD2 and BRD4 is recorded as “up-regulation”. Further, the “effect in concomitant combination with demethylating agents, HDAC and mTOR inhibitors, glucocorticoids, and conventional cytotoxic drugs” value in data set [7] was “strong synergistic effects”.

On to `O=C(/C=C/c1ccc(CN(CCO)CCc2c[nH]c3ccccc23)cc1)NO` [LAQ824], for which the half-maximal inhibitory concentration (IC50) in the data set with HDAC is 32 nM.

In the case of `Cn1c(/C=C/C(=O)NO)ccc1/C=C/C(=O)c1cccc(F)c1` [MC1568], the IC50 with HDAC is 220 nM.

On to `Cc1cc(Cl)ccc1OCCCC(=O)NO` [Droxinostat, 4-(4-Chloro-2-methylphenoxy)-N-hydroxybutanamide], for which the IC50 on HDAC3 is 16900 nM.

As to GSK2126458, the figures for the Ki at PI3Kβ (p110β) and at PI3Kγ (p110γ) were 0.13 nM and 0.024 nM, respectively.

In the case of “(3S,6S,9S,15aR)-9-((R)-sec-butyl)-6-((1-methoxy-1H-indol-2-yl)methyl)-3-(6-oxooetyl)decahydro-1H-pyrido[1,2-a][1,4,7,10]tetraazacyclododecine-1,4,7,10(12H)-tetraone [Apicidin]”, the IC50 in the data set on HDAC is 0.7 nM.

On to `CCCC(CCC)C(=O)O` [Valproic acid sodium salt], for which the IC50 in the data set on HDAC is 400000 nM.

On to `CCCCc1nc2cc(/C=C/C(=O)NO)ccc2n1CCN(CC)CC` [SB939, (E)-3-(2-butyl-1-(2-(diethylamino)ethyl)-1H-benzo[d]imidazol-5-yl)-N-hydioxyacrylamide], for which the IC50 in the data set on HDAC was 40 to 140 nM.

On to `CO[C@H]1C[C@@H]2CC[C@@H](C)[C@@](O)(O2)C(=O)C(=O)N2CCCC[C@H]2C(=O)O[C@H]([C@H](C)C[C@@H]2CC[C@@H](OC(=O)C(C)(CO)CO)[C@H](OC)C2)CC(=O)[C@H](C)/C=C(\C)[C@@H](O)[C@@H](OC)C(=O)[C@H](C)C[C@H](C)/C=C/C=C/C=C/1C` [Temsirolimus], for which, at mTOR, the concentration for half-maximal inhibition (IC50) was 1.76 nM.
